# Assay results taken from patent US9000037B2, “Precursors of glutamate derivatives” (Piramal Imaging SA, priority 2011, dated 2015).
# What was measured:
# tumor = details: cited from earlier work
# [1] = 19F-fluorination of precursors, reaction rates; assay type: physicochemical; details: for krel (relative reaction rate): 19F-fluorination, slowest reaction (If) defined as 1; for reaction rate of 19F-fluorination, in words: comparison among precursors
# Procedure: Precursor (0.01 mmol) was dissolved in acetonitrile (0.5 mL), and 1.0 M TBAF/acetonitrile solution (20 μL, 0.02 mmol) was added. The reaction mixture was stirred at 80° C. for 2 h. 40 μL of solution was taken at 5, 10, 20, 40, 60, 90, and 120 min for HPLC analysis (method A4).
# ^19F-Fluorination was performed as described in “General procedures”. The progress of the reaction was examined after 5, 10, 20, 40, 60, 90, and 120 min. Plotting the percentage of the conversation versus the time, the reaction rates were calculated.
# [2] = Stability of example compounds in solid form (HPLC); assay type: physicochemical; details: for Solid (%) Start: purity by HPLC before the study; for Solid (%) 1 week 0° C. / Solid (%) 1 week −20° C. / Solid (%) 2 week 0° C. / Solid (%) 2 week −20° C. / Solid (%) 3 week 0° C. / Solid (%) 3 week −20° C. / Solid (%) 4 week 0° C. / Solid (%) 4 week −20° C.: amber vial under Ar; for Solid (%) 2 week 0° C. / Solid (%) 2 week −20° C.: 2 weeks; for Solid (%) 3 week 0° C. / Solid (%) 3 week −20° C.: 3 weeks; for Solid (%) 4 week 0° C. / Solid (%) 4 week −20° C.: 4 weeks
# Procedure: Method A1 (analytics of di-tert-butyl (4S)-4-(3-hydroxypropyl)-N-trityl-L-glutamate • Column: ChiralPak IA, 4.6×250 mm • Mobile phase: 5% IPA/n-heptane • Flow rate: 1 mL/min • Wavelength: 214/254 nm Method A2 (for Id) • Column: X-Bridge • Mobile phase: Acetonitrile/water 20:80 to 100% water • Flow rate: 1 mL/min • Wavelength: 214 nm Method A3 (for Ia to Ic and Ie to II) • Column: X-Bridge • Mobile phase: Acetonitrile/water […] to 100% water • Flow rate: 1 mL/min • Wavelength: 214 nm Method A4 (^19F-fluorination) • Column: Phenomenex Lux 5U Amylose-2 • Mobile phase: 10% IPA/Hex • Flow rate: 1 mL/min • Wavelength: 214 nm Method A5 (^18F-radiolabeling) • Column: Phenomenex Luna 5μ C18(2); 250*4.6 mm • Mobile phase: A: Na2HPO4 10 mM pH 7.4, B: acetonitrile • Gradient: 0 min 12% B, 15 min 12% B, 16 min 100% B, 18 min 100% B, 20 min 12% B, 23 min 12% B • Flow rate: 1.2 mL/min • Wavelength: 340 nm • Derivatization: […] of the product solution are mixed with […] OPA reagent (Thermo Scientific, No.:26015). After 1 min reaction at room temperature the solution is applied to the HPLC
# The stability of the compounds of formula I were examined in solid form at two different temperatures: 0° C., and −20° C. The precursors were tested weekly for 4 weeks. Before the study, purities of the precursors were determined individually by HPLC analysis.
# 1. Solid state: 3-5 mg of the respective precursor Ia to Ij were put into 8 amber vials, which were flushed with Ar gas and capped. Each four vials containing precursor were stored at 0° C., and −20° C. Every week for 4 weeks, 1 mg of precursor was dissolved in acetonitrile (1.0 mL). 10 μL of solution was injected into HPLC (method A2 or A3, respectively).
Solid (%) Start [2] [%],Solid (%) 1 week 0° C. [2] [%],Solid (%) 1 week −20° C. [2] [%],Solid (%) 2 week 0° C. [2] [%],Solid (%) 2 week −20° C. [2] [%],Solid (%) 3 week 0° C. [2] [%],Solid (%) 3 week −20° C. [2] [%],Solid (%) 4 week 0° C. [2] [%],Solid (%) 4 week −20° C. [2] [%],Compound,results in first clinical studies (tumor; compared with [18F]-4-fluoro-glutamic acid),detection of lung cancer (tumor; first clinical studies),krel (relative reaction rate) [1],"reaction rate of 19F-fluorination, in words [1]",tumor uptake (tumor; first clinical studies),defluorination (tumor; in vivo)
99.4,99.5,99.4,99.3,99.2,99.1,99.0,98.7,98.4,"CC(C)(C)OC(=O)[C@@H](CCCOS(=O)(=O)c1ccc([N+](=O)[O-])cc1)C[C@H](NC(c1ccccc1)(c1ccccc1)c1ccccc1)C(=O)OC(C)(C)C [Ia, Di-tert-butyl (4S)-4-(3-{[(4-nitrophenyl)sulfonyl]oxy}propyl)-N-trityl-L-glutamate]",–,–,6.93,Fastest conversion,–,–
96.7,96.5,96.6,94.6,94.8,95.0,93.7,91.3,94.3,"CC(C)(C)OC(=O)[C@@H](CCCOS(=O)(=O)c1cccc([N+](=O)[O-])c1)C[C@H](NC(c1ccccc1)(c1ccccc1)c1ccccc1)C(=O)OC(C)(C)C [Ib, Di-tert-butyl (4S)-4-(3-{[(3-nitrophenyl)sulfonyl]oxy}propyl)-N-trityl-L-glutamate]",–,–,9.86,Fastest conversion,–,–
98.8,98.6,98.6,98.6,98.7,98.6,96.9,98.4,98.0,"CC(C)(C)OC(=O)[C@@H](CCCOS(=O)(=O)c1ccc(-c2ccccc2)cc1)C[C@H](NC(c1ccccc1)(c1ccccc1)c1ccccc1)C(=O)OC(C)(C)C [Ic, Di-tert-butyl (4S)-4-{3-[(biphenyl-4-ylsulfonyl)oxy]propyl}-N-trityl-L-glutamate]",–,–,2.93,–,–,–
99.8,99.8,99.8,–,–,99.8,99.8,99.8,99.8,"CC(C)(C)OC(=O)[C@@H](CCCOS(=O)(=O)c1ccc2ccccc2c1)C[C@H](NC(c1ccccc1)(c1ccccc1)c1ccccc1)C(=O)OC(C)(C)C [Id, Di-tert-butyl (4S)-4-{3-[(2-naphthylsulfonyl)oxy]propyl}-N-trityl-L-glutamate]",–,–,2.38,–,–,–
99.1,99.0,98.9,99.0,99.0,99.0,98.6,98.6,97.9,"CC(C)(C)OC(=O)[C@@H](CCCOS(=O)(=O)c1cccc2ccccc12)C[C@H](NC(c1ccccc1)(c1ccccc1)c1ccccc1)C(=O)OC(C)(C)C [Ie, Di-tert-butyl (4S)-4-{3-[(1-naphthylsulfonyl)oxy]propyl}-N-trityl-L-glutamate]",–,–,2.45,–,–,–
90.5,89.5,89.6,89.0,88.5,89.0,88.3,89.0,87.0,"CC(C)(C)OC(=O)[C@@H](CCCOS(=O)(=O)c1cccc2cccnc12)C[C@H](NC(c1ccccc1)(c1ccccc1)c1ccccc1)C(=O)OC(C)(C)C [If, Di-tert-butyl (4S)-4-{3-[(quinolin-8-ylsulfonyl)oxy]propyl}-N-trityl-L-glutamate]",–,–,1.0,slowest reaction,–,–

# Further lines, the compound ahead of its results:
Compound,Solid (%) Start [2] [%],Solid (%) 1 week 0° C. [2] [%],Solid (%) 1 week −20° C. [2] [%],Solid (%) 2 week 0° C. [2] [%],Solid (%) 2 week −20° C. [2] [%],Solid (%) 3 week 0° C. [2] [%],Solid (%) 3 week −20° C. [2] [%],Solid (%) 4 week 0° C. [2] [%],Solid (%) 4 week −20° C. [2] [%],results in first clinical studies (tumor; compared with [18F]-4-fluoro-glutamic acid),detection of lung cancer (tumor; first clinical studies),krel (relative reaction rate) [1],"reaction rate of 19F-fluorination, in words [1]",tumor uptake (tumor; first clinical studies),defluorination (tumor; in vivo)
N[C@@H](C[C@H](CCC[18F])C(=O)O)C(=O)O [(S)-4-(3-[^18F]Fluoropropyl)-L-glutamic acid],–,–,–,–,–,–,–,–,–,Superior results,Very good results,–,–,–,–
"CC(C)(C)OC(=O)[C@@H](CCCOS(=O)(=O)c1ccc(-c2ccc(S(=O)(=O)OCCC[C@@H](C[C@H](NC(c3ccccc3)(c3ccccc3)c3ccccc3)C(=O)OC(C)(C)C)C(=O)OC(C)(C)C)cc2)cc1)C[C@H](NC(c1ccccc1)(c1ccccc1)c1ccccc1)C(=O)OC(C)(C)C [Ig, Tetra-tert-butyl (2S,4S,2′S,4′S)-2,2′-[biphenyl-4,4′-diylbis(sulfonyloxypropane-3,1-diyl)]bis[4-(tritylamino)pentanedioate]]",97.9,97.9,98.0,98.0,98.1,97.9,97.9,97.8,97.5,–,–,11.8,Fastest conversion,–,–
"CC(C)(C)OC(=O)[C@@H](CCCOS(=O)(=O)c1ccc([N+](=O)[O-])c(C(F)(F)F)c1)C[C@H](NC(c1ccccc1)(c1ccccc1)c1ccccc1)C(=O)OC(C)(C)C [Ih, Di-tert-butyl (4S)-4-[3-({[4-nitro-3-(trifluoromethyl)phenyl]sulfonyl}oxy)propyl]-N-trityl-L-glutamate]",97.6,94.4,94.6,95.0,94.8,93.1,93.1,93.4,92.8,–,–,–,–,–,–
"CC(C)(C)OC(=O)[C@@H](CCCOS(=O)(=O)c1c(Cl)cc(Cl)cc1Cl)C[C@H](NC(c1ccccc1)(c1ccccc1)c1ccccc1)C(=O)OC(C)(C)C [Ii, Di-tert-butyl (4S)-4-(3-{[(2,4,6-trichlorophenyl)sulfonyl]oxy}propyl)-N-trityl-L-glutamate]",97.2,89.5,89.6,97.0,97.0,96.7,95.6,95.9,93.2,–,–,1.88,–,–,–
N[C@@H](CC([18F])C(=O)O)C(=O)O (some centres unmarked) [[^18F]-4-fluoro-glutamic acid],–,–,–,–,–,–,–,–,–,–,–,–,–,good tumor uptake,some defluorination was detected
